Test results reported in patent US8143408B2, “N-(8-heteroaryltetrahydronaphtalene-2yl) or N-(5-heteroarylchromane-3-yl) carboxamide derivatives for the treatment of pain” (AstraZeneca AB, priority 2007, dated 2012).

The compounds below were run against T1, Nav1.7 voltage-gated sodium channel (Homo sapiens, UniProt Q15858) (assay: Whole-cell voltage clamp electrophysiology assay). Conditions: cells stably expressing the voltage-gated sodium channel of interest.
T1 construct: Gene(s) encoding the full-length protein of the voltage-gated sodium channel of interest are cloned and expressed; expressed in transfected cells
T1 sequence (Q15858 whole entry): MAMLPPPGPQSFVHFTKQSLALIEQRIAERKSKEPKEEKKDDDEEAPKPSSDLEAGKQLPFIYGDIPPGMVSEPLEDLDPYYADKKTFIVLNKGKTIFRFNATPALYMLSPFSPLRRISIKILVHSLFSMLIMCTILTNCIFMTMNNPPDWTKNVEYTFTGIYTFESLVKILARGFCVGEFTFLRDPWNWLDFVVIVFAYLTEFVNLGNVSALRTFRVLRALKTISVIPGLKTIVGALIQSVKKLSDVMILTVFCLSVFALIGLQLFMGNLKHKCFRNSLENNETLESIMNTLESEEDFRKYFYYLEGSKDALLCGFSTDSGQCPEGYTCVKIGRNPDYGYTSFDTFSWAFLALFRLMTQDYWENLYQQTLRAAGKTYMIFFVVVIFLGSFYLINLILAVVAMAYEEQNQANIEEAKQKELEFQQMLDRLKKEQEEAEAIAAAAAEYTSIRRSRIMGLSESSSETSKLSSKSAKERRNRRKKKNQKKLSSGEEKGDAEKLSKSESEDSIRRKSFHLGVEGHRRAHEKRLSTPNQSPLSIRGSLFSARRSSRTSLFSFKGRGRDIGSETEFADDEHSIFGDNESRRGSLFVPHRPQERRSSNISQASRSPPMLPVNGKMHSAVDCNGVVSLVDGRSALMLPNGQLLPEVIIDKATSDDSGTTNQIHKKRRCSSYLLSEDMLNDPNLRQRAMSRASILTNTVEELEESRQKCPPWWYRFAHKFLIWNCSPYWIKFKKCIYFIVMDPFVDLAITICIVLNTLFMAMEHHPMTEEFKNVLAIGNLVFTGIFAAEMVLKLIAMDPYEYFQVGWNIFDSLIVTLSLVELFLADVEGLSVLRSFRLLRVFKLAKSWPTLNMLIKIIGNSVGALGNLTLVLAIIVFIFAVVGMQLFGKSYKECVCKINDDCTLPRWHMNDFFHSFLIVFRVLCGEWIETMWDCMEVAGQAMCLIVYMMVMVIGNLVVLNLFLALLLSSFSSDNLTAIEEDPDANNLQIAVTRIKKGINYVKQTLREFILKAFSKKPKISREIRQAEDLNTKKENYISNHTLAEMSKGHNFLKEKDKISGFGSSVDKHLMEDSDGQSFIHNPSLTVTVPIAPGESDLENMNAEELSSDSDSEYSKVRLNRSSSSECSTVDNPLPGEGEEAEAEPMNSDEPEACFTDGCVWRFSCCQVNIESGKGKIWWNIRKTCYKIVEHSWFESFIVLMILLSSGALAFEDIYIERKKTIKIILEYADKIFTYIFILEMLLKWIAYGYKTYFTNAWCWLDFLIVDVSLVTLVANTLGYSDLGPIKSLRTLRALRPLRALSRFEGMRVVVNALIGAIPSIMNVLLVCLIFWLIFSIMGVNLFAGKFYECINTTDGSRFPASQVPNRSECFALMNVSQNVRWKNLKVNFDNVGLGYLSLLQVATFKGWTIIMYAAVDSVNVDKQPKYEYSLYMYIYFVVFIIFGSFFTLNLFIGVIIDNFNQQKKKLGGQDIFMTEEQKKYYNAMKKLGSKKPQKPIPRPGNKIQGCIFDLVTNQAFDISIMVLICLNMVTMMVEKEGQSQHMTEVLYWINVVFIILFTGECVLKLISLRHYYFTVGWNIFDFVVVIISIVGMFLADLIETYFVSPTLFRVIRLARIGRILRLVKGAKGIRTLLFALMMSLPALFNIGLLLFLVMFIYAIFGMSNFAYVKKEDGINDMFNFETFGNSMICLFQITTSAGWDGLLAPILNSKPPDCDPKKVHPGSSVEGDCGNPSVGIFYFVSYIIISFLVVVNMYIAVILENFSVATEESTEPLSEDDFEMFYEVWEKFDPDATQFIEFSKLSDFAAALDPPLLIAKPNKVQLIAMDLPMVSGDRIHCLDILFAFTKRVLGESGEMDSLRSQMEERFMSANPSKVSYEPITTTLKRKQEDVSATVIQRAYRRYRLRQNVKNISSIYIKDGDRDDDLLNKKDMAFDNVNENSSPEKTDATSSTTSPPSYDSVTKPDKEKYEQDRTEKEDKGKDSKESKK
Format: cell-based
Text: Gene(s) encoding the full-length protein of the voltage-gated sodium channel of interest are cloned and expressed under a suitable promoter in a suitable cell line, as well known in the art. […] Suitable screening assays are as follows.
Electrophysiological studies can be performed using automated patch-clamp electrophysiology platforms, like IonWorks HT, IonWorks Quattro, PatchXpress, QPatch or any other suitable platform. […] Suitable extracellular and intracellular buffer for such experiments are applied according to the instructions given by the manufacturer of the automated patch-clamp platforms. Cells that express the voltage-gated sodium channel protein of interest are exposed to drugs through the pipetting system integrated in the platforms. A suitable voltage stimulus protocol is used to activate the voltage-gated sodium channel proteins of interest through depolarisation from a defined holding potential.
Electrophysiological studies can also be performed using the whole cell configuration of the standard patch clamp technique. In this assay, cells that express the voltage-gated sodium channel protein of interest are exposed to the drugs by conventional microperfusion systems and a suitable voltage stimulus protocol is used to activate the voltage-gated sodium channels.

SMILES | IC50 [µM]
O=C(N[C@@H]1COc2cccc(-c3ccncc3)c2C1)c1ccc(OC(F)(F)F)cc1 [Example 1, N-[(3S)-5-Pyridin-4-yl-3,4-dihydro-2H-chromen-3-yl]-4-(trifluoromethoxy)-benzamide] | 0.398
CCCCOc1ccc(C(=O)N[C@@H]2COc3cccc(-c4ccncc4)c3C2)cc1 [Example 2, 4-Butoxy-N-[(3S)-5-pyridin-4-yl-3,4-dihydro-2H-chromen-3-yl]benzamide] | 0.126
O=C(N[C@@H]1CCc2cccc(-c3ccncc3)c2C1)c1ccc(OS(=O)(=O)C(F)(F)F)cc1 [Example 3, 4-{[(2R)-8-Pyridin-4-yl-1,2,3,4-tetrahydronaphthalen-2-yl]carbamoyl}phenyl trifluoromethanesulfonate] | 0.251
O=C(N[C@@H]1COc2cccc(-c3ccccn3)c2C1)c1ccc(OC(F)(F)F)cc1 [Example 5, N-[(3S)-5-Pyridin-2-yl-3,4-dihydro-2H-chromen-3-yl]-4-(trifluoromethoxy)-benzamide] | 1.58
Cn1cc(-c2cccc3c2C[C@H](NC(=O)c2ccc(OC(F)(F)F)cc2)CC3)cn1 [Example 6, N-[(2R)-8-(1-Methyl-1H-pyrazol-4-yl)-1,2,3,4-tetrahydronaphthalen-2-yl]-4-(trifluoromethoxy)-benzamide] | 1
Cn1cc(-c2cccc3c2C[C@H](NC(=O)c2ccc(OS(=O)(=O)C(F)(F)F)cc2)CC3)cn1 [Example 7, 4-{[(2R)-8-(1-Methyl-1H-pyrazol-4-yl)-1,2,3,4-tetrahydronaphthalen-2-yl]carbamoyl}phenyl trifluoromethanesulfonate] | 0.2
Cc1nn(-c2ccccc2)nc1C(=O)N[C@@H]1CCc2cccc(-c3cnn(C)c3)c2C1 [Example 8, 5-Methyl-N-[(2R)-8-(1-methyl-1H-pyrazol-4-yl)-1,2,3,4-tetrahydronaphthalen-2-yl]-2-phenyl-2H-1,2,3-triazole-4-carboxamide] | 1.58
Cc1n[nH]c(C)c1-c1cccc2c1C[C@H](NC(=O)c1ccc(OC(F)(F)F)cc1)CC2 [Example 9, N-[(2R)-8-(3,5-Dimethyl-1H-pyrazol-4-yl)-1,2,3,4-tetrahydronaphthalen-2-yl]-4-(trifluoromethoxy)-benzamide] | 6.31
Cc1noc(C)c1-c1cccc2c1C[C@H](NC(=O)c1ccc(OC(F)(F)F)cc1)CC2 [Example 10, N-[(2R)-8-(3,5-Dimethylisoxazol-4-yl)-1,2,3,4-tetrahydronaphthalen-2-yl]-4-(trifluoromethoxy)-benzamide] | 3.98
Cc1noc(C)c1-c1cccc2c1C[C@H](NC(=O)c1ccc(OS(=O)(=O)C(F)(F)F)cc1)CC2 [Example 11, 4-{[(2R)-8-(3,5-Dimethylisoxazol-4-yl)-1,2,3,4-tetrahydronaphthalen-2-yl]carbamoyl}phenyl trifluoromethanesulfonate] | 0.631
O=C(N[C@@H]1CCc2cccc(-c3ccncc3)c2C1)c1ccc(OCC(F)(F)F)nc1 [Example 12, N-[(2R)-8-pyridin-4-yl-1,2,3,4-tetrahydronaphthalen-2-yl]-6-(2,2,2-trifluoroethoxy)nicotinamide] | 0.0631
O=C(N[C@@H]1CCc2cccc(-c3ccncc3)c2C1)c1ccc(OCCC(F)(F)F)nc1 [Example 13, N-[(2R)-8-pyridin-4-yl-1,2,3,4-tetrahydronaphthalen-2-yl]-6-(3,3,3-trifluoropropoxy)nicotinamide] | 0.0398
CC(C)Oc1ccc(C(=O)N[C@@H]2CCc3cccc(-c4ccncc4)c3C2)cn1 [Example 14, 6-isopropoxy-N-[(2R)-8-pyridin-4-yl-1,2,3,4-tetrahydronaphthalen-2-yl]nicotin-amide] | 0.251
O=C(N[C@@H]1CCc2cccc(-c3ccncc3)c2C1)c1ccc(OC2CCCC2)nc1 [Example 15, 6-(cyclopentyloxy)-N-[(2R)-8-pyridin-4-yl-1,2,3,4-tetrahydronaphthalen-2-yl]nicotin-amide] | 0.0251
